From paper PMC9944328 (Nature Communications, 2023)
Where “and” joins values, the source holds several entries; their conditions need not be identical. Identical values can stand only once. Entries after “also recorded” stand apart in the source; their conditions may differ.

Experiments:
[1] = target: T1, SSTR2 mutants (Homo sapiens, UniProt P30874, N276A)
[2] = target: SSTR3 mutants (Homo sapiens, UniProt P32745, N104V); test: SSTRs Gi-mediated cAMP inhibition, GloSensor, HEK293 (SSTR3 mutants); format: cell-based; parameters: Bottom / Top / Span / Top (best-fit): unit not given here; settings: for Top: best-fit
Chain of SSTR3 mutants (Homo sapiens, UniProt P32745, N104V) (P32745 whole entry N104V): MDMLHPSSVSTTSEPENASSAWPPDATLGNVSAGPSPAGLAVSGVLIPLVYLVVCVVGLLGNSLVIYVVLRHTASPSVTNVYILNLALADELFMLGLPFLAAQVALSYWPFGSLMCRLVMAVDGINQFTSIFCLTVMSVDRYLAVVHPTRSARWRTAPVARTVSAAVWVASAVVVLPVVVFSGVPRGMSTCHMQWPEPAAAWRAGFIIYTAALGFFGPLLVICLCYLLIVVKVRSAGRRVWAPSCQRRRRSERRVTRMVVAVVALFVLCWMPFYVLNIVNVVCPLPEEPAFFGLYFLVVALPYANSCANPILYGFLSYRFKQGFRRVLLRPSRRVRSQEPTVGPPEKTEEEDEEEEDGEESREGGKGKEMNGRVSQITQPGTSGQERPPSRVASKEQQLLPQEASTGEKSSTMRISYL
Method: (§1) The levels of the intracellular 3′, 5′-cyclic AMP (cAMP) were measured by the GloSensor cAMP assay (Promega) as described in the previous studies[28],[41] which has been widely used. The human full-length SSTRs and mutants were cloned into the pcDNA3.1+ vector with a HA signal sequence followed by a Flag tag at the N-terminus. […] Cells were then co-transfected with SSTR wild-type or mutants and GloSensor plasmids. After 24 h of transfection, the cells were dissociated with TrypLE™ Express Enzyme (1X) (Thermo Fisher Scientific) and collected by centrifugation at 500 × g for 5 min. Then the collected cells were suspended in Hank’s balanced salt solution [HBSS (Thermo Fisher Scientific)] supplemented with […] potassium salt solution (YEASEN), and then the suspension cells were seeded into 96-well plates with 90 μl/well. After incubating at room temperature for 40 min, 5 μM forskolin and ligands diluted in HBSS were added to each well and the plates were incubated at room temperature for 15 min. […] signals were measured using the Synergy H1 microplate reader (BioTek) and the data presented are means of at least three independent experiments.

[3] = target: T2, SSTR3 mutants (Homo sapiens, UniProt P32745, M193I); test: as above; format: cell-based; parameters: Bottom / Top / Span / Top (best-fit): unit not given here
T2 construct: The human full-length SSTRs and mutants were cloned into the pcDNA3.1+ vector; expressed in transfected cells; host or cells: HEK293 (ATCC, CRL-1573)
T2 sequence (P32745 whole entry M193I): as the sequence (P32745 whole entry N104V) above, with V104N, M193I counted along it
Method: as §1

[4] = tested on: SSTR3 mutants; test: as above; format: cell-based, human; parameters: Bottom / Top / Span / Top (best-fit): unit not given here; settings: H192(45.51)T and N101(2.64)V in SSTR3
Method: as §1

[5] = target: T1, SSTR2 mutants; test: cell-based
[6] = target: SSTR2 mutants (Homo sapiens, UniProt P30874, R140A); test: cell-based
Chain of SSTR2 mutants (Homo sapiens, UniProt P30874, R140A) (P30874 whole entry R140A): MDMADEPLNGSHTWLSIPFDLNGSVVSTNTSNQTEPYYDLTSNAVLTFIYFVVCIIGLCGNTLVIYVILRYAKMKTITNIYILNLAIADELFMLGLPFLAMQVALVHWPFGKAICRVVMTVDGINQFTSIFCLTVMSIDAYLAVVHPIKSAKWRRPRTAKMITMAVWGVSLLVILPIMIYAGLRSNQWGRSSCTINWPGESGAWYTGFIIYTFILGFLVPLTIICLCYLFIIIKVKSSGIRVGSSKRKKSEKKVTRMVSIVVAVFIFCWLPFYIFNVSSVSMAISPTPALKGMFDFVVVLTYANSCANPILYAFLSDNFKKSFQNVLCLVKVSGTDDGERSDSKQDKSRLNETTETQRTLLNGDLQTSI

[7] = target: SSTR2 mutants (Homo sapiens, UniProt P30874, Y312A); test: cell-based
Chain of SSTR2 mutants (Homo sapiens, UniProt P30874, Y312A) (P30874 whole entry Y312A): as the sequence (P30874 whole entry R140A) above, with A140R, Y312A counted along it

[8] = target: SSTR2 mutants (Homo sapiens, UniProt P30874, I284A); test: SSTRs Gi-mediated cAMP inhibition, GloSensor, HEK293, 5 μM forskolin, 15 min room temperature (SSTR2 mutants); format: cell-based; parameters: The human full-length SSTRs and mutants were cloned into the pcDNA3.1+ vector; expressed in transfected cells; host or cells: HEK293 (ATCC, CRL-1573); Best-fit Bottom, cAMP inhibition / Best-fit Top, cAMP inhibition / Span, cAMP inhibition / Bottom (best-fit value) / Top (best-fit value) / Span (best-fit value) / Span (best-fit) / Bottom (best-fit) / Top (best-fit) / Best-fit Bottom / Best-fit Top / Best-fit Span / Top / Span: scale not given here; settings: I284A, best-fit, runs 1-3
Chain of SSTR2 mutants (Homo sapiens, UniProt P30874, I284A) (P30874 whole entry I284A): as the sequence (P30874 whole entry R140A) above, with A140R, I284A counted along it
Method: The levels of the intracellular 3′, 5′-cyclic AMP (cAMP) were measured by the GloSensor cAMP assay (Promega) as described in the previous studies[28],[41] which has been widely used. The human full-length SSTRs and mutants were cloned into the pcDNA3.1+ vector with a HA signal sequence followed by a Flag tag at the N-terminus. HEK293 cells (ATCC, CRL-1573) were seeded into 6-well microplates at a density of 1.0 × 10^6 cells/well and cultured for 24 h at 37 °C with 5% CO2. Cells were then co-transfected with SSTR wild-type or mutants and GloSensor plasmids. After 24 h of transfection, the cells were dissociated with TrypLE™ Express Enzyme (1X) (Thermo Fisher Scientific) and collected by centrifugation at 500 × g for 5 min. Then the collected cells were suspended in Hank’s balanced salt solution [HBSS (Thermo Fisher Scientific)] supplemented with […] (YEASEN), and then the suspension cells were seeded into 96-well plates with 90 μl/well. After incubating at room temperature for 40 min, 5 μM forskolin and ligands diluted in HBSS were added to each well and the plates were incubated at room temperature for 15 min. […] were measured using the Synergy H1 microplate reader (BioTek) and the data presented are means of at least three independent experiments.

[9] = tested on: SSTR1–5; test: Gi signaling of SSTR1–5, cAMP inhibition, HEK293; format: cell-based, human; settings: SSTR2 versus other SSTRs
Method: as §1

[10] = tested on: acromegalic patients; settings: cited from earlier work
Excerpt: Somatostatin receptors (SSTRs) are members of the G protein-coupled receptor (GPCR) superfamily and contain five subtypes (SSTR1–5). SSTRs, especially SSTR2, are expressed at high levels in NETs and have emerged as important biomarkers[4],[6]. SSTRs and their endogenous ligands, somatostatin (SST) peptides, exert important physiological regulation of neuroendocrine functions. […] However, the use of SST for disease treatment is li ... || SSTR2 transmits extracellular signals into cells through Gαi/o coupling and β-arrestin recruitment pathways. cAMP inhibition causes decreased hormone secretion and cell proliferation[13],[14], while the β-arrestin recruitment results in subsequent receptor internalization thus influence the cell membrane distribution level and desensitization of SSTR2, which may lead to drug resistance and poor clinical curative effect[15]–[18].

T1 sequence (P30874 whole entry N276A): as the sequence (P30874 whole entry R140A) above, with A140R, N276A counted along it

Work on `N#Cc1cccc(-c2ccc3ncc(-c4cc(F)cc(F)c4)c(N4CCC(N)CC4)c3c2)c1O` [paltusotine] yielded an Emax [1] of 81 ± 1.71%, an EC50 [2] of 97.8 nM and a Top ([2]; SSTR3 N101V-1) of 184. The Top ([2]; SSTR3 N101V-2) was 142.6, the Top ([2]; SSTR3 N101V-3) was 142.6 and the Emax ([3]; HEK293, Suppl. Table 4, SSTR3 M193(45.52)I, n=3) was 38.8 ± 17.4%. For the same compound, the “Fold of WT” value ([3]; Suppl. Table 4, SSTR3 M193(45.52)I) was 2.89, the EC50 ([3]; Suppl. Table 4, SSTR3 M193(45.52)I, n=3) was 184 ± 6.02 nM and the Bottom ([3]; best-fit, SSTR3 M193I-1) was -5.898. For the same compound, the EC50 ([3]; best-fit, SSTR3 M193I-1) was 590 nM, the LogEC50 ([3]; best-fit, SSTR3 M193I-1) was -6.229 and the Span ([3]; best-fit, SSTR3 M193I-1) was 76.32. The Top ([3]; best-fit, SSTR3 M193I-1) was 70.42, the Bottom ([3]; best-fit, SSTR3 M193I-2) was 0.4332 and the LogEC50 ([3]; best-fit, SSTR3 M193I-2) was ~ -3.924. The Span ([3]; best-fit, SSTR3 M193I-2) was ~ 6676, the Top ([3]; best-fit, SSTR3 M193I-2) was ~ 6677 and the Bottom ([3]; best-fit, SSTR3 M193I-3) was 0.4332. The LogEC50 ([3]; best-fit, SSTR3 M193I-3) was ~ -3.924, the Span ([3]; best-fit, SSTR3 M193I-3) was ~ 6676 and the Top ([3]; best-fit, SSTR3 M193I-3) was ~ 6677. The “Receptor activation of mutants” value [4] was “increased paltusotine-induced SSTR3 activation”, the EC50 [5] was 145.2 ± 1.11 nM and the EC50 [6] was 7.8 ± 1.47 nM. The EC50 [7] was 8.13 ± 1.64 nM, the Span [8] was 112.7 and 91.59 and 139.6 and the Top [8] was 112.9 and 105.5 and 122.9. For the same compound, the Subtype selectivity [9] was “highly selective agonist of SSTR2 relative to other SSTR subtypes; also recorded: more potent selectivity for SSTR2; also recorded: higher selectivity and efficacy towards SSTR2 relative to other group 2 SSTRs”.
For `C[C@@H](O)[C@@H]1NC(=O)[C@H](CCCCN)NC(=O)[C@@H](Cc2c[nH]c3ccccc23)NC(=O)[C@H](Cc2ccccc2)NC(=O)[C@@H](NC(=O)[C@H](N)Cc2ccccc2)CSSC[C@@H](C(=O)N[C@H](CO)[C@@H](C)O)NC1=O` [octreotide], the “Acromegalic patients who do not respond well” value [10] is listed as ~ 30% and the “SSTR2 expression level during administration” value [10] is listed as “down-regulated”.
